# Data taken from PMC12024191, “Pharmacological and Molecular Docking Investigation of Leaves of Eriobotrya japonica: Antioxidant, Enzyme Inhibition, and Anti-Inflammatory Effects” (Antioxidants, 2025).
# Where two headings read alike, the source gives them in different places.
# Legend:
# [1] = system: NO production of LPS-induced RAW264.7 cells; experiment: LPS-induced NO inhibition assay (Griess); type: cell-based, Murine; settings: Mus musculus, read-out: NO inhibition IC50
# Description: LPS-induced NO production of RAW264.7 cells was determined by Griess assay. The 100 μL quantity of cells was seeded in 96-well plates at an amount of 5 × 10^4 cells/well and incubated for 24 h. The cells were then treated with 100 ng/mL LPS with vehicle or different concentrations of the tested sample for 24 h. […] The absorbance was measured at 540 nm to calculate the NO inhibition. Sodium nitrite was used to generate a standard curve.
# [2] = Ferric reducing antioxidant power (FRAP)
# Description: According to the previously published methods, acetate buffer (pH 3.6), FeCl3 solution (20 mM), and 10 m TPTZ solution (prepared in 40 mM HCl) were mixed in a ratio of 10:1:1 to generate the FRAP working solution. Then, the working solution was warmed to 37 °C before being used. The diluted sample, blank, or standard solution (100 µL) was mixed with the warm-up working solution (900 µL) and incubated for 40 min in a dry bath at 37 °C. The absorbance at 593 nm was measured using an ELISA reader. The standard curve was linear from 0 to 100 mM Trolox, and the data were expressed as mM TE/g dry weight.
# [3] = Radical scavenging activity of ABTS; settings: for EC50: isolated components (Table 4), read-out: SC50 ABTS
# Description: According to the method reported in [49], ABTS solution (28 mM) was mixed with potassium permanganate solution (9.6 mM) in an equal ratio (v/v = 1:1) and allowed to react at room temperature in the dark for 16 h to generate the ABTS radical solution. The ABTS radical solution was then diluted with EtOH until the absorbance reached 0.70 ± 0.02 at 740 nm. The tested samples were subsequently diluted to the desired concentrations with EtOH. In a 96-well plate, the ABTS radical solution (190 μL) was mixed with the sample solution (10 μL) and was allowed to react at room temperature for 6 min in the dark. The absorbance was then measured at 740 nm using an ELISA reader. The scavenging activity was calculated using the following equation. Scavenging rate (%) = (Acontrol − Asample)/Acontrol × 100% where Acontrol was the absorbance of the control and Asample was that of the tested sample.
# [4] = target: T1, acetylcholinesterase (AChE) (Electrophorus electricus, UniProt O42275); experiment: biochemical
# T1 construct: purchased Sigma-Aldrich
# T1 sequence (O42275 24-633): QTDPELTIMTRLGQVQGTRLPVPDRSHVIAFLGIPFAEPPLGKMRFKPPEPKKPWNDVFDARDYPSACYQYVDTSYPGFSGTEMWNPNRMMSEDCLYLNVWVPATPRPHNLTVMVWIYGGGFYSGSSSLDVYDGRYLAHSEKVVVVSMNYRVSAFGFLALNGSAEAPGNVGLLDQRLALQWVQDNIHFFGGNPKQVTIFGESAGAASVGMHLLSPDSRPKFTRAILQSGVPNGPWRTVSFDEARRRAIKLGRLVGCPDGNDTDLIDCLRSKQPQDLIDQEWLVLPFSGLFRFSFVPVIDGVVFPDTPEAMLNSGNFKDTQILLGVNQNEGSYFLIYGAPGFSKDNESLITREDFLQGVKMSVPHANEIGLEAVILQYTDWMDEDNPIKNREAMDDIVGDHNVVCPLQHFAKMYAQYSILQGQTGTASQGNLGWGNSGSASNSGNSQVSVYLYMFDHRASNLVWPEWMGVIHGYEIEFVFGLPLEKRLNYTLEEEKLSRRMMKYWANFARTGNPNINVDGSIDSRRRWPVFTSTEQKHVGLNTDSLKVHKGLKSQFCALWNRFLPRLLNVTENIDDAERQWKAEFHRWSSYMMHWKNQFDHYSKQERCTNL
# Description: The AChE inhibition was carried out based on the previous method. The sodium phosphate buffer (pH 8.0, 0.1 M, 140 μL), DTNB (10 μL), tested sample (20 μL), and AChE solution (15 μL) were mixed in a 96-well plate. After incubating at room temperature for 10 min, the absorbance was measured at 405 nm. The inhibitory effect was calculated by the following equation. Acetylcholinesterase inhibition (%) = (Acontrol − Asample)/Acontrol × 100% where Asample and Acontrol represent the absorbance values of the tested sample and control, respectively.
# [5] = Radical scavenging activity of DPPH; settings: for EC50: isolated components (Table 4), read-out: SC50 DPPH
# Description: According to the method reported in [48], a DPPH radical solution (400 μM) was prepared in EtOH. The tested samples were diluted to the desired concentrations with EtOH. In a 96-well plate, diluted tested sample solution (100 μL) was mixed with 100 μL of the DPPH radical solution (200 μM). The mixture was allowed to react at room temperature for 30 min in the dark. After the reaction, the absorbance at 520 nm was measured using an ELISA reader (TECAN Sunrise, Männedorf, Schweiz). The scavenging activity was calculated using the following equation. Scavenging rate (%) = (Acontrol − Asample)/Acontrol × 100% where Acontrol was the absorbance of the control and Asample was that of the tested sample.
# [6] = Radical scavenging activity of superoxide; settings: for EC50: isolated components (Table 4), read-out: SC50 Superoxide
# Description: According to a previously reported procedure, the superoxide radical solution was prepared in Tris-HCl buffer (16 mM, pH 8.0) containing 300 µM NBT (50 µL), 120 µM PMS (50 µL), and tested sample solution (50 µL). […] The absorbance at 560 nm was measured using an ELISA reader, and the scavenging activity was calculated by the following equation. Scavenging rate (%) = (Acontrol − Asample)/Acontrol × 100% where Acontrol was the absorbance of the control and Asample was that of the tested sample.
# [7] = target: T2, α-glucosidase (Saccharomyces cerevisiae, UniProt P53341); experiment: Enzyme inhibition assay of α-glucosidase; type: biochemical, S. cerevisiae
# T2 construct: purchased Sigma-Aldrich
# T2 sequence (P53341 whole entry): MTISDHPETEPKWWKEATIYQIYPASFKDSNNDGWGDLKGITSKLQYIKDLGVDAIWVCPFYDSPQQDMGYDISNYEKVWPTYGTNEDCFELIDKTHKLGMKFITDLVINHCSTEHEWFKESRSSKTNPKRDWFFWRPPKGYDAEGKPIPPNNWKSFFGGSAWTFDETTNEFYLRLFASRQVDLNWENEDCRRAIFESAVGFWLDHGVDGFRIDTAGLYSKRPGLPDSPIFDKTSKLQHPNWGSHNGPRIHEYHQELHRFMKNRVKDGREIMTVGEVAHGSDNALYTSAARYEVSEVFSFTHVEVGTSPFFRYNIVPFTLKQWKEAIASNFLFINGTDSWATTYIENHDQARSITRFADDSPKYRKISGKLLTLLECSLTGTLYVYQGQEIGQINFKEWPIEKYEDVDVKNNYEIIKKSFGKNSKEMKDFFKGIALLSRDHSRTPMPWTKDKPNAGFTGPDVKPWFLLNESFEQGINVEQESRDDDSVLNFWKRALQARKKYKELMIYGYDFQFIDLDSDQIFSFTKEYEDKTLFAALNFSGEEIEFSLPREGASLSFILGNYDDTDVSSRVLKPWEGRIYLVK
# Description: The inhibitory activity of α-glucosidase was determined based on the previously reported method. The α-glucosidase solution was prepared with sodium phosphate buffer (pH 6.8, 0.1 M) and diluted to 1 U/mL. Subsequently, the tested sample solution (100 µL), diluted α-glucosidase solution (20 µL), and 0.53 mM p-NPG (380 µL) were mixed and incubated at 37 °C for 40 min. […] The activity was calculated by the following equation. α-Glucosidase inhibition (%) = (Acontrol − Asample)/Acontrol × 100% where Asample and Acontrol represent the absorbance values of the tested sample and control, respectively.
# [8] = system: iNOS expression in LPS-stimulated RAW264.7 cells; experiment: Western blot analysis of iNOS expression; type: cell-based, Murine; settings: compared to the LPS group (100 ng/mL LPS)
# [9] = 100 ng/mL LPS, 24 h, RAW264.7 cells
# [10] = isolated components (Table 4), mM Trolox equivalents per g
# [11] = solvent extracts, concentration causing 50% free radical scavenging
Compound,"IC50 [1, 9] [µM]","TE FRAP [2, 10]",EC50 [3] [µM],IC50 ([4]; isolated components (Table 5)) [µM],EC50 [5] [µM],EC50 [6] [µM],further results
"Oc1cc(O)c2c(c1)O[C@H](c1ccc(O)c(O)c1)[C@H](O)C2 [Epicatechin (5), epicatechin]",> 50,1694.43 ± 21.45 ^A mM/g,7.83 ± 0.34,405 ± 26.3,56.9 ± 0.91,210 ± 9.46,IC50 [7]: > 800 µM
"C[C@@H]1O[C@@H](OC[C@H]2O[C@@H](Oc3c(-c4ccc(O)c(O)c4)oc4cc(O)cc(O)c4c3=O)[C@H](O)[C@@H](O)[C@@H]2O)[C@H](O)[C@H](O)[C@H]1O [Rutin (6), rutin]",,1609.10 ± 25.67 ^A mM/g,20 ± 0.3,452 ± 12.9,66.3 ± 1.68,6.69 ± 0.25,"IC50 ([1]; RAW264.7, 24 h): 29.5 ± 1.19 µM"
"CC1CCC2(C(=O)O)CCC3(C)C(=CCC4C5(C)CC(O)C(O)C(C)(C)C5CCC43C)C2C1(C)O (stereo not shown) [Tormentic acid (4), tormentic acid]",> 50,<1 mM/g,> 400,281 ± 8.55,> 400,> 400,IC50 [7]: 320 ± 26.1 µM
"O=C(/C=C/c1ccc(O)c(O)c1)O[C@@H]1C[C@](O)(C(=O)O)C[C@@H](O)[C@H]1O [Chlorogenic acid, chlorogenic acid, reference compound]",,,,320 ± 4.13,,,IC50 ([4]; solvent extracts (Table 3)): 386 µM
"C[C@H]1[C@H](C)CC[C@]2(C(=O)O)CC[C@]3(C)C(=CC[C@@H]4[C@@]5(C)C[C@@H](O)[C@H](O)C(C)(C)[C@@H]5CC[C@]43C)[C@H]12 [Corosolic acid (3), corosolic acid]",,<1 mM/g,> 400,283 ± 17,> 400,> 400,"IC50 ([7]; isolated components (Table 5), read-out: IC50 α-Glucosidase): 13.8 ± 2.11 µM"
"O=c1c(O)c(-c2ccc(O)c(O)c2)oc2cc(O)cc(O)c12 [Quercetin, quercetin, reference compound]",17.1 ± 1.63,,,,,,
"O=c1cc(-c2ccc(O)c(O)c2)oc2cc(O[C@@H]3O[C@H](CO)[C@@H](O)[C@H](O)[C@H]3O)cc(O)c12 [Cynaroside, cynaroside, reference compound]",,,,,,38.3 ± 0.69,"SC50 Superoxide [6, 11]: 13.41 ± 2.56 ^A μg/mL"
"C[C@H]1[C@H](C)CC[C@]2(C(=O)O)CC[C@]3(C)C(=CC[C@@H]4[C@@]5(C)CC[C@H](O)C(C)(C)[C@@H]5CC[C@]43C)[C@H]12 [Ursolic acid (2), ursolic acid]",20.2 ± 1.46,,,311 ± 7.31,,,Inhibition of iNOS expression ([8]; 10 μM): 26.7%; Inhibition of iNOS expression ([8]; 20 μM): 68.1%
"Cc1cc(C(C)(C)C)c(O)c(C(C)(C)C)c1 [BHT, reference compound]",,3082.65 ± 213.69 ^B mM/g,25.87 ± 0.01,,881 ± 70.4,,"TE FRAP ([2]; solvent extracts (Table 2), mM Trolox equivalents per gram): 3370.27 ± 256.53 ^D mM/g; SC50 ABTS [3, 11]: 29.95± 1.04 ^A μg/mL; SC50 DPPH [5, 11]: 230.05 ± 25.40 ^AB μg/mL"
"CC1(C)CC[C@]2(C(=O)O)CC[C@]3(C)C(=CC[C@@H]4[C@@]5(C)CC[C@H](O)C(C)(C)[C@@H]5CC[C@]43C)[C@@H]2C1 [Oleanolic acid (1), oleanolic acid]",,<1 mM/g,> 400,,> 400,> 400,"IC50 ([1]; RAW264.7, 24 h): > 50 µM"
